Structures can show the parent of a compound that is named as a salt.
System: peripheral blood lymphocyte count
Assay: Evaluation of peripheral blood lymphocyte count-decreasing effect in mice
Type: in vivo
Conditions: male BALB/cAnNCrj mice, intraperitoneally administered, 24 hr after administration

Row | Compound | mouse peripheral blood lymphocyte count-decreasing effect, ED50 value (dose necessary for 50% reduction of the lymphocyte count of vehicle group as 100%) [mg/kg body weight]
1 | CCCCCCCOc1ccc(CCC(N)(CO)CO)cc1C.Cl [comparison compound 1-7, 2-amino-2-[2-(4-heptyloxy-3-methylphenyl)ethyl]propane-1,3-diol Hydrochloride, reference compound] | 0.64
2 | CCCCCCCOc1ccc(CCC(N)(CO)CO)cc1C(F)(F)F.Cl [compound 1-3, 2-amino-2-[2-(4-heptyloxy-3-trifluoromethylphenyl)ethyl]propane-1,3-diol Hydrochloride] | 0.04
3 | CCCCCCCOc1ccc(CCC(C)(N)CO)cc1C(F)(F)F.Cl (stereo not drawn) [compound 13-6, 2-amino-4-(4-heptyloxy-3-trifluoromethylphenyl)-2-methylbutanol Hydrochloride] | 0.02
4 | CCCCCCCOc1ccc(CC[C@@](C)(N)CO)cc1C(F)(F)F.Cl [compound 15-3, (R)-2-amino-4-(4-heptyloxy-3-trifluoromethylphenyl)-2-methylbutanol Hydrochloride] | 0.02
5 | CCCCCCCOc1ccc(/C=C/C(N)(CO)CO)cc1C(F)(F)F [compound 28-6, (E)-2-amino-2-[2-(4-heptyloxy-3-trifluoromethylphenyl)vinyl]propane-1,3-diol Hydrochloride] | 0.03

System: not listed separately
Assay: Effect on heart rate in rat telemetry
Type: in vivo, Sprague-Dawley (IGS) rats
Conditions: orally administered, up to the dose of 30 mg/kg body weight, measured from 24 hr before to 72 hr after administration
Experimental: Effect on Heart Rate in Rat Telemetry
Male Sprague-Dawley (IGS) rats were anesthetized by intraperitoneal administration of Nembutal (manufactured by DAINIPPON PHARMACEUTICAL CO., LTD.), a pressure sensor connected to a telemetry transmitter (TL11M2-C50-PTX, manufactured by Data Sciences International) was inserted into the abdominal artery, and the transmitter was subcutaneously dwelled in the abdomen. The data of blood pressure and heart rate were recorded by an analysis soft (Dataquest A.R.T., Data Science) via a receiver (RPC-1, manufactured by Data Sciences International). When 10 days to 2 weeks elapsed from the surgery, recovery of heart rate circadian rhythm was confirmed, and the rats were subjected to the experiment. The compound of the present invention was suspended in 0.5% hydroxypropylmethylcellulose (manufactured by Shin-Etsu Chemical Co., Ltd.) and orally administered. The heart rate was measured from 24 hr before the administration to 72 hr after the administration.

Row | Compound | effect on heart rate of the rat
6 | CCCCCCCOc1ccc(CCC(N)(CO)CO)cc1C(F)(F)F.Cl [compound 1-3, 2-amino-2-[2-(4-heptyloxy-3-trifluoromethylphenyl)ethyl]propane-1,3-diol Hydrochloride] | did not affect the heart rate

Reference: patent US8809304B2, “Amine compound and use thereof for medical purposes” (Mitsubishi Tanabe Pharma Corporation, priority 2005, dated 2014)
